Assay results reported in paper doi:10.1101/2023.11.24.568596v1 (biorxiv, 2023).

How the values were obtained:
Conditions in all cases: binder
ABL1 = ABL1 (Homo sapiens, UniProt P00519)
AAK1 = AAK1 (Homo sapiens, UniProt Q2M2I8)
PLK4 = target: T1, PLK4 (Homo sapiens, UniProt O00444)
T1 sequence (O00444 1-970): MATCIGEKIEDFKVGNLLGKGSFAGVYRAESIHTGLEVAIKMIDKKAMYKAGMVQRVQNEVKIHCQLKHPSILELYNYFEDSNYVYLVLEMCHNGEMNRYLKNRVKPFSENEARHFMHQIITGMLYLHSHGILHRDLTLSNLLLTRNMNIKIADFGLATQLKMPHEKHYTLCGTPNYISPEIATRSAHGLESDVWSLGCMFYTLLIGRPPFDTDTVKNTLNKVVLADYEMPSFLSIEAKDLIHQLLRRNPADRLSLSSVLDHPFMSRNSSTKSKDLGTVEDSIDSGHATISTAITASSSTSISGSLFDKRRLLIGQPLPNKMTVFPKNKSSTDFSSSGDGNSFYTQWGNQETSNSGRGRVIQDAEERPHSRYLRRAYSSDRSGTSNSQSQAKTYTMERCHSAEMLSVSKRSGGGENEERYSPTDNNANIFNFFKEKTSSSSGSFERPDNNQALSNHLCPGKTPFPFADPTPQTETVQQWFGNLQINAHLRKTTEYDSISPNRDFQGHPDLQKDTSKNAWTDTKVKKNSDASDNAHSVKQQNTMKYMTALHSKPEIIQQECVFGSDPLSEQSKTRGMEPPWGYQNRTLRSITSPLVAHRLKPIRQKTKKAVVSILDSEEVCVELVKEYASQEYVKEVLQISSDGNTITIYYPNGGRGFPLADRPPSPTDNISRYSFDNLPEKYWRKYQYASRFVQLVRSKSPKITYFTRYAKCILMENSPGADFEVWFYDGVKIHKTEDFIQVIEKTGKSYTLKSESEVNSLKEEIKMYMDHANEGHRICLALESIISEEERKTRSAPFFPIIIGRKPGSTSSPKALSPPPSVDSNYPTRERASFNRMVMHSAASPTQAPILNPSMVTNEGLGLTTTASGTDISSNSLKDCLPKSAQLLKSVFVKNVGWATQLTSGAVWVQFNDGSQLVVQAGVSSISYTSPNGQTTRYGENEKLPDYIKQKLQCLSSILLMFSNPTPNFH

EphA4 = EphA4 (Homo sapiens, UniProt P54764)
p38a = p38a (Homo sapiens, UniProt Q16539)
Chain of p38a (Q16539 whole entry): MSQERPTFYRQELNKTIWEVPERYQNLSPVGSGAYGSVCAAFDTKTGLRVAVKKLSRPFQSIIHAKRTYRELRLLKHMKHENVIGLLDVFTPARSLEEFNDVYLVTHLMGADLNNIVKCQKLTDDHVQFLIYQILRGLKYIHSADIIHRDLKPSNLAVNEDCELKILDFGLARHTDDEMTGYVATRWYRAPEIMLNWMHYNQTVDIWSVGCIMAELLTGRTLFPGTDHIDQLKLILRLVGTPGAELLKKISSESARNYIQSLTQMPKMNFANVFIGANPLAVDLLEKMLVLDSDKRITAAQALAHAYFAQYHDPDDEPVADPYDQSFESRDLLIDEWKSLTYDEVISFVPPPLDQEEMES

MRCKa = MRCKa (Homo sapiens, UniProt Q5VT25)
JNK1 = JNK1 (Homo sapiens, UniProt P45983)
Chain of JNK1 (P45983 whole entry): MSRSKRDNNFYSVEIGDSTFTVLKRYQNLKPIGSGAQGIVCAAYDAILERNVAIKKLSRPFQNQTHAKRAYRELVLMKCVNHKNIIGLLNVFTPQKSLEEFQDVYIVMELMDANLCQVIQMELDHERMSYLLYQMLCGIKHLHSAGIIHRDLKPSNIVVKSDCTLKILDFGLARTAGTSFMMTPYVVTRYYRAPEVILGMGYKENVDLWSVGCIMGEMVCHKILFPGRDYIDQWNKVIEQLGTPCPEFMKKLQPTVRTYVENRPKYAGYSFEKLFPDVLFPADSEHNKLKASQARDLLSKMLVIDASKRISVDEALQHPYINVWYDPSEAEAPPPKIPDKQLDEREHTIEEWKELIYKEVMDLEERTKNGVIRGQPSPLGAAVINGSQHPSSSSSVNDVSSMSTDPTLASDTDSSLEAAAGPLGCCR

PAK4 = PAK4 (Homo sapiens, UniProt O96013)
Chain of PAK4 (O96013 whole entry): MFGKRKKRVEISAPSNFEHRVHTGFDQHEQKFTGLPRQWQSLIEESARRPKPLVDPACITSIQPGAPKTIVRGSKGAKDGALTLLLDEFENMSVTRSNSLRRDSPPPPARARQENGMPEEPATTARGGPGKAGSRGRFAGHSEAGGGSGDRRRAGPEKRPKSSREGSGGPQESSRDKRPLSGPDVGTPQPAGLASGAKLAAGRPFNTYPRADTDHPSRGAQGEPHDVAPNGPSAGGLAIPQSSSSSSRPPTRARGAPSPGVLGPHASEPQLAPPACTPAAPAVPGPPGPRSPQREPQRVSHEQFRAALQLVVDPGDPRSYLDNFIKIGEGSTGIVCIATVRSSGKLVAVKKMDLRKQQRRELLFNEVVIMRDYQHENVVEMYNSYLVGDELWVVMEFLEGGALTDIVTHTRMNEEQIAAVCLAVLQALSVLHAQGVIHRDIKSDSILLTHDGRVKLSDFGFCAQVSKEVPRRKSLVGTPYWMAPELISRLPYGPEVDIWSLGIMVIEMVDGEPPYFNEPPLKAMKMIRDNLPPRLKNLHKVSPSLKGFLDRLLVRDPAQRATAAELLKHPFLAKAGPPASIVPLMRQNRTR

NEK2 = target: T2, NEK2 (Homo sapiens, UniProt P51955)
T2 sequence (P51955 1-445): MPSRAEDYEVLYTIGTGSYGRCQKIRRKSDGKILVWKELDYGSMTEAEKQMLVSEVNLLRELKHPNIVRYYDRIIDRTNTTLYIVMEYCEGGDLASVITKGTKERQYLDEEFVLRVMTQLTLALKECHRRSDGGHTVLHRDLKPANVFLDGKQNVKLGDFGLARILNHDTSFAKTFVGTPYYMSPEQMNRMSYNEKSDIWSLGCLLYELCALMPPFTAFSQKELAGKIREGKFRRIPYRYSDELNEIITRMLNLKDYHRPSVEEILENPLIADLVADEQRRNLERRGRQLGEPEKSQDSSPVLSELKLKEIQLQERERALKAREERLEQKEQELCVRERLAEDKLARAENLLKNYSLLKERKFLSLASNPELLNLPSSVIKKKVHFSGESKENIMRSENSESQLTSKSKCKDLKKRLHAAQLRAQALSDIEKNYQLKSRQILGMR

CK2a1 = CK2a1 (Homo sapiens, UniProt P68400)
Chain of CK2a1 (P68400 whole entry): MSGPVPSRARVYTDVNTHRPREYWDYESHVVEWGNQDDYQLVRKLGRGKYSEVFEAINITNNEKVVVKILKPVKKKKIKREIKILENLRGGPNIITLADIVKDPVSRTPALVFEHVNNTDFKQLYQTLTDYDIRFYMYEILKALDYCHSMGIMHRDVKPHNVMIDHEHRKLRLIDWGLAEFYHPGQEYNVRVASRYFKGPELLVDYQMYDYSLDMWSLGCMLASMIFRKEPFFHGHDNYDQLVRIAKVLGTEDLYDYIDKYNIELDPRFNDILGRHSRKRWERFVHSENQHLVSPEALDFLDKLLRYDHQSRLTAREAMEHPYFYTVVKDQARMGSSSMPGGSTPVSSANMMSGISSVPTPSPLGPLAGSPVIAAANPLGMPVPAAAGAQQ

PIM1 = PIM1 (Homo sapiens, UniProt P11309)
Chain of PIM1 (P11309 whole entry): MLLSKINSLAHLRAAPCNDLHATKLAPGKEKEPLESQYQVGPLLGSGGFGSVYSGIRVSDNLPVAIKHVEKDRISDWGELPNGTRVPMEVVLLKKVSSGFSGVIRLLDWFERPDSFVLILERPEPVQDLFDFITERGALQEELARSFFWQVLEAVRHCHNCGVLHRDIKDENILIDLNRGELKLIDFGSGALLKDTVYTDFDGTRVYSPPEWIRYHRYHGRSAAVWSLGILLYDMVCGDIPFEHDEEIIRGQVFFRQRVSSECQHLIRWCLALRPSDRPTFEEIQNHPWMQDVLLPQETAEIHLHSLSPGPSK

FGFR1 = FGFR1 (Homo sapiens, UniProt P11362)
Chain of FGFR1 (P11362 whole entry): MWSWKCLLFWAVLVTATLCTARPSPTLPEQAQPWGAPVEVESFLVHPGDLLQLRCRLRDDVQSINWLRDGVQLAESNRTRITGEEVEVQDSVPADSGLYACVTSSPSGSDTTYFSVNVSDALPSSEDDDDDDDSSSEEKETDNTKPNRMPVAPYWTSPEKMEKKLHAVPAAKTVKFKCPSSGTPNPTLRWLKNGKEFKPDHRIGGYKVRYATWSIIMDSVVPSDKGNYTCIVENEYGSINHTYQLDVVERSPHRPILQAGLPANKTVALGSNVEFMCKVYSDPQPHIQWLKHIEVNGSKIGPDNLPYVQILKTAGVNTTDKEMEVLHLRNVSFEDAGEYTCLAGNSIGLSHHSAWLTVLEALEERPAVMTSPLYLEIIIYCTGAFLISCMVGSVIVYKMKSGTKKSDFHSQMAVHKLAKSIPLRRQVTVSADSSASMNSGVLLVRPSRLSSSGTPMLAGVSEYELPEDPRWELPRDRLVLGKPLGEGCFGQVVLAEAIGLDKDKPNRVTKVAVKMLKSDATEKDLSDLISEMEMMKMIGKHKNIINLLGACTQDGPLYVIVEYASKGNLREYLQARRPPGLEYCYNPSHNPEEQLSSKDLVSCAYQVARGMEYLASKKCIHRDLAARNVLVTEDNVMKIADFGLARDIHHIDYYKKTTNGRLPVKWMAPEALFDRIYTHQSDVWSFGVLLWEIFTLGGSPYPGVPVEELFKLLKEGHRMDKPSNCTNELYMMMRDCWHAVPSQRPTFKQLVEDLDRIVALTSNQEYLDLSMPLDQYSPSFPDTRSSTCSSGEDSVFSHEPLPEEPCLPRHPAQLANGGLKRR

MSK1b = MSK1b (Homo sapiens, UniProt O75582)
DRAK1 = target: T3, DRAK1 (Homo sapiens, UniProt Q9UEE5)
T3 sequence (Q9UEE5 1-414): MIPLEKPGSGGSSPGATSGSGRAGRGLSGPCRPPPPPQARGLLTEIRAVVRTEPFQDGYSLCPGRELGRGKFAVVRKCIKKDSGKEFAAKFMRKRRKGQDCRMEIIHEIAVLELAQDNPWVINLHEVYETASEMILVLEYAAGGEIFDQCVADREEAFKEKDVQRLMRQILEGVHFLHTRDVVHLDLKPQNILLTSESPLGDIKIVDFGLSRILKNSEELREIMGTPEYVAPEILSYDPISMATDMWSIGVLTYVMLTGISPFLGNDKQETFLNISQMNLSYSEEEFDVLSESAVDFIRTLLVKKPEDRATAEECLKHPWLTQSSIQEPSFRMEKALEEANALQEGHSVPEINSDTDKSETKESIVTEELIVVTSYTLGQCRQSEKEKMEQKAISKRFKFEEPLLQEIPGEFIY

Chain of ABL1 (P00519 whole entry): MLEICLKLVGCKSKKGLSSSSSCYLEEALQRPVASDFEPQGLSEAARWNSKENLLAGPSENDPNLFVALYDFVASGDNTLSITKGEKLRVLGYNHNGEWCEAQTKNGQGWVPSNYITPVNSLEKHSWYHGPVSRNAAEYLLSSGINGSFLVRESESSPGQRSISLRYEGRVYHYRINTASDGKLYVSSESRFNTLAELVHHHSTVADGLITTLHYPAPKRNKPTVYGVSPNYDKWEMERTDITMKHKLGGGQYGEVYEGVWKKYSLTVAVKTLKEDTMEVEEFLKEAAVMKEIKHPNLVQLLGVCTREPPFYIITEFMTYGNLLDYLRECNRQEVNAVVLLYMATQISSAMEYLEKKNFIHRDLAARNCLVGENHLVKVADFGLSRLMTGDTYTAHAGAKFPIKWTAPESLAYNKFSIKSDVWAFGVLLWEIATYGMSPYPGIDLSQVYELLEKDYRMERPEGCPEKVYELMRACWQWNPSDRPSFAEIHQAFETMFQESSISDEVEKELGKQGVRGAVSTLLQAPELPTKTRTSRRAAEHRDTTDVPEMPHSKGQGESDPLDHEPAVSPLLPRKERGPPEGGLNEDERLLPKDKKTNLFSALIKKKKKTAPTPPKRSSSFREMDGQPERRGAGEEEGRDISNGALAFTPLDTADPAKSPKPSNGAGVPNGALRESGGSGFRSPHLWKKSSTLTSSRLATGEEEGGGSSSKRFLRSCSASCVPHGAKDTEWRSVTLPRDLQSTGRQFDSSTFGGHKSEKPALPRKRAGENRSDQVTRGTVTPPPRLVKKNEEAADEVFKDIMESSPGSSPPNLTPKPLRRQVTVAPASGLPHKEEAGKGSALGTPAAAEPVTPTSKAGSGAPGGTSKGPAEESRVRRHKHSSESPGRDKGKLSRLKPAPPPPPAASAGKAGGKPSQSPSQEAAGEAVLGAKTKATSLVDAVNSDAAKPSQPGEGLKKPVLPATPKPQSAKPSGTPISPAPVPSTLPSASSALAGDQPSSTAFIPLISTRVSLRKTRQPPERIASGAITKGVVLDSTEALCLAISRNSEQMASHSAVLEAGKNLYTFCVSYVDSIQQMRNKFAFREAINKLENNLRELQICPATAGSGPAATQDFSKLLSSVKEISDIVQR
Chain of AAK1 (Q2M2I8 whole entry): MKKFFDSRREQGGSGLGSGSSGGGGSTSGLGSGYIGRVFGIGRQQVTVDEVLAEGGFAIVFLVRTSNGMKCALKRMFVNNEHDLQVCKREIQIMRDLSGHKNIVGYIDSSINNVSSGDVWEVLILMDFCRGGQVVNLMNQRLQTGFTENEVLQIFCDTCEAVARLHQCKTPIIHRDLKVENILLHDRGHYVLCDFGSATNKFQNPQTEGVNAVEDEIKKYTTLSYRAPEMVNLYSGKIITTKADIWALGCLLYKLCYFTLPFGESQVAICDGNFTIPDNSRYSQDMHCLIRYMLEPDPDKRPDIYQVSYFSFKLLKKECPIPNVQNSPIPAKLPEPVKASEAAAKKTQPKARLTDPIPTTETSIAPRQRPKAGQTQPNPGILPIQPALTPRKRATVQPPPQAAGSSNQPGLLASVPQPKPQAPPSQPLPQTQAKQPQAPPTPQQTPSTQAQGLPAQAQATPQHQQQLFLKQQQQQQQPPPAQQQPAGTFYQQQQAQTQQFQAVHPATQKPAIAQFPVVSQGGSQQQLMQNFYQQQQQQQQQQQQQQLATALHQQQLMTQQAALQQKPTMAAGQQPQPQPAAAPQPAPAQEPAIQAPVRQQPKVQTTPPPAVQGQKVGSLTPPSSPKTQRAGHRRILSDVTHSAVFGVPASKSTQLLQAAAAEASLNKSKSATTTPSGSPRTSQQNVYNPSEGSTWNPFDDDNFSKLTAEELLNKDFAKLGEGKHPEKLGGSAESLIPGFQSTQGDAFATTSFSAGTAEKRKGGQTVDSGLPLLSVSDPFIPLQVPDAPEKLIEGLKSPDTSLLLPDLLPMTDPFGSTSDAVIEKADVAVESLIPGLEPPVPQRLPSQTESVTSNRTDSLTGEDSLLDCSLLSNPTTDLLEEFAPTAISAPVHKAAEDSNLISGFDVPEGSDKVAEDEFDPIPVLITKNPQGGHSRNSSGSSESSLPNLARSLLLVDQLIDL

Compound: Cc1cccc(-c2ccc(-c3cc4cnc(NCCCN5CCCC5=O)nc4n(CCCCN)c3=O)c(Cl)c2)n1 [compound 27, MR30]
- ΔTm MR30 (27) (ABL1): 3.0 °C
- ΔTm MR30 (27) (AAK1): -0.5 °C
- ΔTm MR30 (27) (PLK4): 4.5 °C
- ΔTm MR30 (27) (EphA4): 2.0 °C
- ΔTm MR30 (27) (p38a): 3.6 °C
- ΔTm MR30 (27) (MRCKa): -0.2 °C
- ΔTm MR30 (27) (JNK1): 0.4 °C
- ΔTm MR30 (27) (PAK4): 2.8 °C
- ΔTm MR30 (27) (NEK2): 6.2 °C
- ΔTm MR30 (27) (CK2a1): -0.4 °C
- ΔTm MR30 (27) (PIM1): -0.5 °C
- ΔTm MR30 (27) (FGFR1): 0.2 °C
- ΔTm MR30 (27) (MSK1b): -1.4 °C
- ΔTm MR30 (27) (DRAK1): -0.4 °C

Compound: Cc1cccc(-c2ccc(-c3cc4cnc(Nc5cc(C(F)(F)F)ccc5C)nc4n(CCCCN)c3=O)c(Cl)c2)n1 [compound 28, 8-(4-Aminobutyl)-6-(2-chloro-4-(6-methylpyridin-2-yl)phenyl)-2-((2-methyl-5-(trifluoromethyl)phenyl)amino)pyrido[2,3-d]pyrimidin-7(8H)-one]
- ΔTm 28 (ABL1): 6.9 °C
- ΔTm 28 (AAK1): -0.1 °C
- ΔTm 28 (PLK4): 8.0 °C
- ΔTm 28 (EphA4): 3.4 °C
- ΔTm 28 (p38a): 3.9 °C
- ΔTm 28 (MRCKa): -1.0 °C
- ΔTm 28 (JNK1): 2.8 °C
- ΔTm 28 (PAK4): 3.5 °C
- ΔTm 28 (NEK2): 7.8 °C
- ΔTm 28 (CK2a1): -0.6 °C
- ΔTm 28 (PIM1): 0.5 °C
- ΔTm 28 (FGFR1): 1.1 °C
- ΔTm 28 (MSK1b): 1.4 °C
- ΔTm 28 (DRAK1): 0.3 °C

Compound: Cc1cccc(-c2ccc(-c3cc4cnc(NCCCN5CCNCC5)nc4n(CCCCN)c3=O)c(Cl)c2)n1 [compound 29, 8-(4-Aminobutyl)-6-(2-chloro-4-(6-methylpyridin-2-yl)phenyl)-2-((3-(piperazin-1-yl)propyl)amino)pyrido[2,3-d]pyrimidin-7(8H)-one]
- ΔTm 29 (ABL1): 4.0 °C
- ΔTm 29 (AAK1): 0.0 °C
- ΔTm 29 (PLK4): 4.2 °C
- ΔTm 29 (EphA4): 2.1 °C
- ΔTm 29 (p38a): 3.2 °C
- ΔTm 29 (MRCKa): -0.3 °C
- ΔTm 29 (JNK1): 0.7 °C
- ΔTm 29 (PAK4): 2.6 °C
- ΔTm 29 (NEK2): 5.1 °C
- ΔTm 29 (CK2a1): -0.2 °C
- ΔTm 29 (PIM1): 0.6 °C
- ΔTm 29 (FGFR1): 0.7 °C
- ΔTm 29 (MSK1b): 0.2 °C
- ΔTm 29 (DRAK1): 1.3 °C

Compound: Cc1cccc(-c2ccc(-c3cc4cnc(Nc5ccc(CCCO)cc5)nc4n(CCCCN)c3=O)c(Cl)c2)n1 [compound 30, 8-(4-Aminobutyl)-6-(2-chloro-4-(6-methylpyridin-2-yl)phenyl)-2-((4-(3-hydroxypropyl)phenyl)amino)pyrido[2,3-d]pyrimidin-7(8H)-one]
- ΔTm 30 (ABL1): 10.3 °C
- ΔTm 30 (AAK1): 4.1 °C
- ΔTm 30 (PLK4): 12.6 °C
- ΔTm 30 (EphA4): 3.5 °C
- ΔTm 30 (p38a): 5.5 °C
- ΔTm 30 (MRCKa): 4.4 °C
- ΔTm 30 (JNK1): 2.8 °C
- ΔTm 30 (PAK4): 9.0 °C
- ΔTm 30 (NEK2): 11.6 °C
- ΔTm 30 (CK2a1): -1.1 °C
- ΔTm 30 (PIM1): -0.4 °C
- ΔTm 30 (FGFR1): 1.0 °C
- ΔTm 30 (MSK1b): 3.6 °C
- ΔTm 30 (DRAK1): 4.0 °C

Compound: Cc1cccc(-c2ccc(-c3cc4cnc(Nc5ccc(O)cc5)nc4n(CCCCN)c3=O)c(Cl)c2)n1 [compound 31, 8-(4-Aminobutyl)-6-(2-chloro-4-(6-methylpyridin-2-yl)phenyl)-2-((4-hydroxyphenyl)amino) pyrido[2,3-d]pyrimidin-7(8H)-one]
- ΔTm 31 (ABL1): 10.6 °C
- ΔTm 31 (AAK1): 4.0 °C
- ΔTm 31 (PLK4): 12.2 °C
- ΔTm 31 (EphA4): 4.4 °C
- ΔTm 31 (p38a): 4.7 °C
- ΔTm 31 (MRCKa): 3.3 °C
- ΔTm 31 (JNK1): 2.7 °C
- ΔTm 31 (PAK4): 8.5 °C
- ΔTm 31 (NEK2): 10.8 °C
- ΔTm 31 (CK2a1): 0.0 °C
- ΔTm 31 (PIM1): 3.7 °C
- ΔTm 31 (FGFR1): 1.5 °C
- ΔTm 31 (MSK1b): 4.3 °C
- ΔTm 31 (DRAK1): 4.5 °C

Compound: Cc1cccc(-c2ccc(-c3cc4cnc(Nc5ccc(C)c(O)c5)nc4n(CCCCN)c3=O)c(Cl)c2)n1 [compound 32, 8-(4-Aminobutyl)-6-(2-chloro-4-(6-methylpyridin-2-yl)phenyl)-2-((3-hydroxy-4-methylphenyl)amino)pyrido[2,3-d]pyrimidin-7(8H)-one]
- ΔTm 32 (ABL1): 10.8 °C
- ΔTm 32 (AAK1): 4.0 °C
- ΔTm 32 (PLK4): 11.5 °C
- ΔTm 32 (EphA4): 4.6 °C
- ΔTm 32 (p38a): 5.3 °C
- ΔTm 32 (MRCKa): 4.0 °C
- ΔTm 32 (JNK1): 1.9 °C
- ΔTm 32 (PAK4): 7.9 °C
- ΔTm 32 (NEK2): 10.1 °C
- ΔTm 32 (CK2a1): -0.3 °C
- ΔTm 32 (PIM1): 1.2 °C
- ΔTm 32 (FGFR1): 2.0 °C
- ΔTm 32 (MSK1b): 4.6 °C
- ΔTm 32 (DRAK1): 5.1 °C
